# Where a name gives a salt, the structure may show the parent alone.
# Assay: Particle size distribution by laser diffraction particle size analyzer (volume basis)
# Assay type: physicochemical
# Method: In the present invention, the “average particle size” means cumulative 50% particle size D50 in the volume based measurement of powder particles. Such average particle size is measured by a laser diffraction particle size analyzer (e.g., Particle Viewer manufactured by POWREX CORPORATION, or SALD-3000J manufactured by Shimadzu Corporation, or HELOS&RODOS manufactured by Sympatec GmbH) by volume basis.
# The particle size distribution of medicament, polymer, other additive, a mixed powder of the medicament and other additive, and the obtained medicament-containing particle was measured by a laser diffraction particle size analyzer (manufactured by POWREX CORPORATION, Particle Viewer) or laser diffraction particle size analyzer (manufactured by Shimadzu Corporation, SAID-3000J) by volume basis.
# [1] = medicament used (raw material), laser diffraction SALD-3000J
# [2] = micronized product of Compound A used in Comparative Example 3-2
# [3] = starting material as used (medicament, polymer, other additive, mixed powder), volume basis
structure (smiles),measurement,setting,value
NS(=O)(=O)Cc1noc2ccccc12 [Compound A (D50: 2.7 μm)],particle size distribution D10,[1],0.7 μm
same,particle size distribution D50,[1],2.7 μm
same,particle size distribution D90,[1],5.6 μm
NS(=O)(=O)Cc1noc2ccccc12 [Compound A (D50: 6.9 μm)],particle size distribution D10,[1],1.0 μm
same,particle size distribution D50,[1],6.9 μm
same,particle size distribution D90,[1],26.8 μm
NS(=O)(=O)Cc1noc2ccccc12 [Compound A (D50: 9.9 μm)],particle size distribution D10,[1],1.2 μm
same,particle size distribution D50,[1],9.9 μm
same,particle size distribution D90,[1],42.9 μm
"NS(=O)(=O)Cc1noc2ccccc12 [Compound A, 1,2-benzisoxazole-3-methanesulfonamide, reference compound]",particle size distribution D10,[1],0.7 μm
same,particle size distribution D50,[1],2.7 μm
same,particle size distribution D90,[1],5.6 μm
same,particle size distribution D10,[2],3.2 μm
same,particle size distribution D50,[2],13.3 μm
same,particle size distribution D90,[2],40.8 μm
same,particle size distribution D10,[3],0.7 μm
same,particle size distribution D50,[3],2.7 μm
same,particle size distribution D90,[3],5.6 μm
"Cl.O=C1[C@@H]2[C@H]3CC[C@H](C3)[C@@H]2C(=O)N1C[C@@H]1CCCC[C@H]1CN1CCN(c2nsc3ccccc23)CC1 [Compound B, (3aR,4S,7R,7aS)-2-{(1R,2R)-2-[4-(1,2-benzisothiazol-3-yl)piperazin-1-ylmethyl]cyclohexylmethyl}hexahydro-4,7-methano-2H-isoindole-1,3-dione hydrochloride, reference compound]",particle size distribution D10,[3],0.5 μm
same,particle size distribution D50,[3],1.5 μm
same,particle size distribution D90,[3],3.3 μm
"Nc1ccc(O)c(C(=O)O)c1 [Compound D, 5-amino-2-hydroxybenzoic acid, reference compound]",particle size distribution D10,[3],1.3 μm
same,particle size distribution D50,[3],4.6 μm
same,particle size distribution D90,[3],12.7 μm
"C[C@@H](c1ccc(-c2ccccc2)c(F)c1)c1cc(N=C(N)N2CCOCC2)on1 [Compound E, 3-[(1S)-1-(2-fluorobiphenyl-4-yl)ethyl]-5-{[amino(morpholin-4-yl)methylene]amino}isoxazole]",particle size distribution D10,[3],1.3 μm
same,particle size distribution D50,[3],3.2 μm
same,particle size distribution D90,[3],6.3 μm
"COc1cccc(-c2nccc3[nH]c(=O)c(-c4noc(C)n4)cc23)c1 [Compound F, 5-(3-methoxyphenyl)-3-(5-methyl-1,2,4-oxadiazol-3-yl)-2-oxo-1,2-dihydro-1,6-naphthyridine]",particle size distribution D10,[3],0.6 μm
same,particle size distribution D50,[3],2.5 μm
same,particle size distribution D90,[3],5.0 μm
"COc1ccc2c(c1)c(CC(=O)O)c(C)n2C(=O)c1ccc(Cl)cc1 [Compound G, 1-(4-chlorobenzoyl)-5-methoxy-2-methyl-1-H-indole-3-acetic acid, reference compound]",particle size distribution D10,[3],0.8 μm
same,particle size distribution D50,[3],3.1 μm
same,particle size distribution D90,[3],8.1 μm
"OC[C@@H](O)[C@@H](O)[C@H](O)[C@H](O)CO [D-mannitol (JM pulverized product), D-mannitol]",particle size distribution D10,[3],0.5 μm
same,particle size distribution D50,[3],2.0 μm
same,particle size distribution D90,[3],4.2 μm
"OC[C@@H](O)[C@@H](O)[C@H](O)[C@H](O)CO [D-mannitol (PEARLITOL 50C), D-mannitol]",particle size distribution D10,[3],6.9 μm
same,particle size distribution D50,[3],47.0 μm
same,particle size distribution D90,[3],125.2 μm
"CC(=O)Nc1ccc(O)cc1 [acetaminophen, reference compound]",particle size distribution D10,[3],2.8 μm
same,particle size distribution D50,[3],11.6 μm
same,particle size distribution D90,[3],46.1 μm
"OC[C@H]1O[C@@H](O[C@H]2[C@H](O)[C@@H](O)C(O)O[C@@H]2CO)[C@H](O)[C@@H](O)[C@H]1O (stereo partly drawn) [lactose (Pharmatose 200M), lactose]",particle size distribution D10,[3],4.0 μm
same,particle size distribution D50,[3],48.7 μm
same,particle size distribution D90,[3],129.0 μm
"O=C([O-])[O-].[Mg+2] [magnesium carbonate (light), magnesium carbonate]",particle size distribution D10,[3],0.9 μm
same,particle size distribution D50,[3],4.0 μm
same,particle size distribution D90,[3],10.6 μm
"CCOc1cc(N)c(Cl)cc1C(=O)NCC1CN(Cc2ccc(F)cc2)CCO1 (stereo not drawn) [mosapride citrate, reference compound]",particle size distribution D10,[3],2.3 μm
same,particle size distribution D50,[3],9.2 μm
same,particle size distribution D90,[3],30.6 μm

# Reference: patent US20230240994A1, “MEDICAMENT-CONTAINING HOLLOW PARTICLE” (Sumitomo Pharma Co., Ltd., priority 2012, published 2023)
